pIC50: −log10 of the molar value.
Columns and labels:
OVCAR3 p-RB = assay: pRB ICW Assay in OVCAR3 Cells; format: cell-based; conditions: Homo sapiens, OVCAR-3, incubated with compound for 2 hours
Summary of the method: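 In-Cell Western on OVCAR3: phospho-RB antibody signal with DRAQ5 counterstain read at 700 and 800 nm after fixation. Compounds were applied for 2 h at 37° C. as 9-point ½-log dilutions in duplicate; 10 μM reference compound defined full inhibition.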

CDK4/Cyclin D1 = target: T1, CDK4/Cyclin D1 (Homo sapiens, UniProt P11802); assay: CDK4/CyclinD1 Enzymatic Activity Assay (TR-FRET); format: biochemical; conditions: ATP 2 mM final, read-out: CDK4_D1 IC50
T1 construct: purchased ProQinase; host or cells: insect cell
T1 sequence (P11802 whole entry): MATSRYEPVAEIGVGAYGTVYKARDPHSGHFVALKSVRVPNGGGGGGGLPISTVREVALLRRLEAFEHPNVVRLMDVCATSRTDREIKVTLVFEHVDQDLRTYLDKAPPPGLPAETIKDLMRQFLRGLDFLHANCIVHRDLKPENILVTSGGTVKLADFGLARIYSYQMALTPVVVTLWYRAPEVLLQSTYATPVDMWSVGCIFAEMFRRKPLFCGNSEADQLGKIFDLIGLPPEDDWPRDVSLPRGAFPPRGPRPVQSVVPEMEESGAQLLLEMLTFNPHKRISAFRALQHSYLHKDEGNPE
T1 sequence (P24385 whole entry partner): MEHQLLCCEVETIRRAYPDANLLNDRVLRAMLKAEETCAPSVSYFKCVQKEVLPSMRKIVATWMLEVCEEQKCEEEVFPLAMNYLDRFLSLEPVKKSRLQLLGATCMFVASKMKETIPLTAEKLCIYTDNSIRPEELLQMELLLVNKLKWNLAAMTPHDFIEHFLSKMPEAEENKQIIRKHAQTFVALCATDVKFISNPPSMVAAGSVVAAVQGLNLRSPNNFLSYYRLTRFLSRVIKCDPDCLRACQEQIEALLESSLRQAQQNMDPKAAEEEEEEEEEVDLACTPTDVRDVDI
Procedure: CDK4/CyclinD1 Enzymatic Activity Assay
The inhibitory activity of compounds was evaluated in vitro using TR-FRET assay with white 384-well low volume microplate (Greiner Bio-One). CDK4/Cyclin D1 catalyzed phosphorylation of peptide in the presence and absence of compounds was measured and used in IC50 determination. Recombinant protein complex CDK4/Cyclin D1, expressed from insect cell, was purchased from ProQinase. Testing compounds were dissolved in DMSO at 1 mM and tested in 9-dose IC50 mode. The reaction mixture was prepared by mixing CDK4/CyclinD1 (1 nM final), ULight-4E-BP1 (100 nM final, Perkinelmer, TRF0128-D), and ATP (2 mM final) in assay buffer (20 mM of HEPES pH 7.4, 1 mM of EGTA, 0.05% BSA, 0.005% Tween 20, and 1 mM TCEP). The compound of interest in DMSO was added to each well in 3-fold serial dilution by the dispenser (TECAN D300E) to make a 9.9 μL of reaction mixture. After 20 minutes preincubation at room temperature, 0.1 μL MgCl2 (10 mM final) was added to initiate the reaction. Following a 45-minute incubation at 37° C., the reaction was stopped by addition of 2 μL of quenching buffer consisting of Lance detection buffer (Perkinelmer CR97-100C), LANCE Ultra Europium-anti-P-4E-BP1 (Perkinelmer, TRF0216-D), EDTA, and incubated at room temperature for additional 60 minutes in dark. The reaction signal was measured by Envision multimode plate reader (PerkinElmer, 2102-0010). IC50 values were determined by fitting the data to the standard 4 parameters with Hill Slope using GraphPad Prism software.

CDK2/Cyclin E2 = target: T2, CDK2/Cyclin E2 (Homo sapiens, UniProt P24941); assay: CDK2/CyclinE2 Enzymatic Activity Assay (TR-FRET); format: biochemical; conditions: ATP 1 mM final, read-out: CDK2_E1 IC50
T2 construct: Recombinant protein complex CDK2/Cyclin E2, expressed from insect cell, was purchased from ProQinase
Summary of the method: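 Recombinant insect-cell CDK2/Cyclin E2 (1 nM) phosphorylated ULight-4E-BP1 (50 nM) with 1 mM ATP in HEPES pH 7.4 buffer, after 20 min compound preincubation; MgCl2 (10 mM) started the 45 min reaction at 37° C. Europium anti-phospho-4E-BP1 TR-FRET read; 9-dose IC50 by 4-parameter fit.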

Row | pIC50 (OVCAR3 p-RB) | pIC50 (CDK4/Cyclin D1) | pIC50 (CDK2/Cyclin E2) | SMILES
1 | ≥ 7.00 | ≥ 7.00 | ≥ 7.00 | CC(O)c1sc(-c2nc(N[C@@H]3CCN(S(=O)(=O)c4cnn(C)c4)C[C@H]3F)ncc2C(F)(F)F)cc1C#N (stereo partly drawn) [Example 36, 5-(2-(((3R,4R)-3-fluoro-1-((1-methyl-1H-pyrazol-4-yl)sulfonyl)piperidin-4-yl)amino)-5-(trifluoromethyl)pyrimidin-4-yl)-2-(1-hydroxyethyl)thiophene-3-carbonitrile]
2 | 6.30 to 7.00 | 6.30 to 7.00 | ≥ 7.00 | C[C@@H]1CN(S(=O)(=O)c2cn(C)cn2)CC[C@@H]1Nc1ncc(C(F)(F)F)c(-c2cc(C#N)c(CC(C)(C)O)s2)n1 [Example 40, 2-(2-hydroxy-2-methylpropyl)-5-(2-(((3R,4S)-3-methyl-1-((1-methyl-1H-imidazol-4-yl)sulfonyl)piperidin-4-yl)amino)-5-(trifluoromethyl)pyrimidin-4-yl)thiophene-3-carbonitrile]
3 | ≥ 7.00 | ≥ 7.00 | ≥ 7.00 | Cn1cc(S(=O)(=O)N2CC[C@H](Nc3ncc(C(F)(F)F)c(-c4cc(C#N)c(CC(C)(C)O)s4)n3)[C@H](F)C2)cn1 [Example 41, 5-(2-(((3R,4S)-3-fluoro-1-((1-methyl-1H-pyrazol-4-yl)sulfonyl)piperidin-4-yl)amino)-5-(trifluoromethyl)pyrimidin-4-yl)-2-(2-hydroxy-2-methylpropyl)thiophene-3-carbonitrile]
4 | ≥ 7.00 | ≥ 7.00 | ≥ 7.00 | Cn1cnc(S(=O)(=O)N2CC[C@H](Nc3ncc(C(F)(F)F)c(-c4cc(C#N)c(CC(C)(C)O)s4)n3)[C@H](F)C2)c1 [Example 42, 5-(2-(((3R,4S)-3-fluoro-1-((1-methyl-1H-imidazol-4-yl)sulfonyl)piperidin-4-yl)amino)-5-(trifluoromethyl)pyrimidin-4-yl)-2-(2-hydroxy-2-methylpropyl)thiophene-3-carbonitrile]
5 | ≥ 7.00 | ≥ 7.00 | ≥ 7.00 | C[C@@H]1CN(S(=O)(=O)c2cnn(C)c2)CC[C@@H]1Nc1ncc(C(F)(F)F)c(-c2cc(C(N)=O)c(CC(C)(C)O)s2)n1 [Example 44, 2-(2-hydroxy-2-methylpropyl)-5-(2-(((3R,4S)-3-methyl-1-((1-methyl-1H-pyrazol-4-yl)sulfonyl)piperidin-4-yl)amino)-5-(trifluoromethyl)pyrimidin-4-yl)thiophene-3-carboxamide]
6 | 6.30 to 7.00 | ≥ 7.00 | ≥ 7.00 | Cn1cnc(S(=O)(=O)N2CC[C@H](Nc3ncc(C(F)(F)F)c(-c4cc(C(N)=O)c(CC(C)(C)O)s4)n3)[C@H](F)C2)c1 [Example 47, 5-(2-(((3R,4S)-3-fluoro-1-((1-methyl-1H-imidazol-4-yl)sulfonyl)piperidin-4-yl)amino)-5-(trifluoromethyl)pyrimidin-4-yl)-2-(2-hydroxy-2-methylpropyl)thiophene-3-carboxamide]
7 | ≥ 7.00 | ≥ 7.00 | ≥ 7.00 | Cn1cc(S(=O)(=O)N2CC[C@@H](Nc3ncc(C(F)(F)F)c(-c4cc(C(N)=O)c(CC(C)(C)O)s4)n3)[C@H](F)C2)cn1 [Example 48, 5-(2-(((3R,4R)-3-fluoro-1-((1-methyl-1H-pyrazol-4-yl)sulfonyl)piperidin-4-yl)amino)-5-(trifluoromethyl)pyrimidin-4-yl)-2-(2-hydroxy-2-methylpropyl)thiophene-3-carboxamide]

The remaining lines, values behind:

Row | SMILES | pIC50 (OVCAR3 p-RB) | pIC50 (CDK4/Cyclin D1) | pIC50 (CDK2/Cyclin E2)
8 | CC(O)c1sc(-c2nc(N[C@@H]3CCN(S(=O)(=O)c4cn(C)cn4)C[C@H]3F)ncc2C(F)(F)F)cc1C#N (stereo partly drawn) [Example 37, 5-(2-(((3R,4R)-3-fluoro-1-((1-methyl-1H-imidazol-4-yl)sulfonyl)piperidin-4-yl)amino)-5-(trifluoromethyl)pyrimidin-4-yl)-2-(1-hydroxyethyl)thiophene-3-carbonitrile] | ≥ 7.00 | ≥ 7.00 | ≥ 7.00
9 | C[C@@H]1CN(S(=O)(=O)c2cnn(C)c2)CC[C@@H]1Nc1ncc(C(F)(F)F)c(-c2cc(C#N)c(CC(C)(C)O)s2)n1 [Example 38, 2-(2-hydroxy-2-methylpropyl)-5-(2-(((3R,4S)-3-methyl-1-((1-methyl-1H-pyrazol-4-yl)sulfonyl)piperidin-4-yl)amino)-5-(trifluoromethyl)pyrimidin-4-yl)thiophene-3-carbonitrile] | 6.30 to 7.00 | 6.30 to 7.00 | ≥ 7.00
10 | Cn1cnc(S(=O)(=O)N2CCC(Nc3ncc(C(F)(F)F)c(-c4cc(C#N)c(CC(C)(C)O)s4)n3)CC2)c1 [Example 39, 2-(2-hydroxy-2-methylpropyl)-5-(2-((1-((1-methyl-1H-imidazol-4-yl)sulfonyl)piperidin-4-yl)amino)-5-(trifluoromethyl)pyrimidin-4-yl)thiophene-3-carbonitrile] | ≥ 7.00 | ≥ 7.00 | ≥ 7.00
11 | C[C@@H]1CN(S(C)(=O)=O)CC[C@@H]1Nc1ncc(C(F)(F)F)c(-c2cc(C(N)=O)c(CC(C)(C)O)s2)n1 [Example 43, 2-(2-hydroxy-2-methylpropyl)-5-(2-(((3R,4S)-3-methyl-1-(methylsulfonyl)piperidin-4-yl)amino)-5-(trifluoromethyl)pyrimidin-4-yl)thiophene-3-carboxamide] | < 6.30 | 6.30 to 7.00 | ≥ 7.00
12 | Cn1cnc(S(=O)(=O)N2CCC(Nc3ncc(C(F)(F)F)c(-c4cc(C(N)=O)c(CC(C)(C)O)s4)n3)CC2)c1 [Example 45, 2-(2-hydroxy-2-methylpropyl)-5-(2-((1-((1-methyl-1H-imidazol-4-yl)sulfonyl)piperidin-4-yl)amino)-5-(trifluoromethyl)pyrimidin-4-yl)thiophene-3-carboxamide] | ≥ 7.00 | ≥ 7.00 | ≥ 7.00
13 | Cn1cc(S(=O)(=O)N2CC[C@H](Nc3ncc(C(F)(F)F)c(-c4cc(C(N)=O)c(CC(C)(C)O)s4)n3)[C@H](F)C2)cn1 [Example 46, 5-(2-(((3R,4S)-3-fluoro-1-((1-methyl-1H-pyrazol-4-yl)sulfonyl)piperidin-4-yl)amino)-5-(trifluoromethyl)pyrimidin-4-yl)-2-(2-hydroxy-2-methylpropyl)thiophene-3-carboxamide] | ≥ 7.00 | ≥ 7.00 | ≥ 7.00
14 | Cn1cnc(S(=O)(=O)N2CC[C@@H](Nc3ncc(C(F)(F)F)c(-c4cc(C(N)=O)c(CC(C)(C)O)s4)n3)[C@H](F)C2)c1 [Example 49, 5-(2-(((3R,4R)-3-fluoro-1-((1-methyl-1H-imidazol-4-yl)sulfonyl)piperidin-4-yl)amino)-5-(trifluoromethyl)pyrimidin-4-yl)-2-(2-hydroxy-2-methylpropyl)thiophene-3-carboxamide] | 6.30 to 7.00 | ≥ 7.00 | ≥ 7.00
15 | Cn1cnc(S(=O)(=O)N2CCC(Nc3ncc(C(F)(F)F)c(-c4cc(C(N)=O)ns4)n3)CC2)c1 [Example 50, 5-(2-((1-((1-methyl-1H-imidazol-4-yl)sulfonyl)piperidin-4-yl)amino)-5-(trifluoromethyl)pyrimidin-4-yl)isothiazole-3-carboxamide] | ≥ 7.00 | ≥ 7.00 | ≥ 7.00
16 | Cn1cc(S(=O)(=O)N2CCC(Nc3ncc(C(F)(F)F)c(-c4cc(C(N)=O)c(CC(C)(C)O)s4)n3)CC2)cn1 [Example 51, 2-(2-hydroxy-2-methylpropyl)-5-(2-((1-((1-methyl-1H-pyrazol-4-yl)sulfonyl)piperidin-4-yl)amino)-5-(trifluoromethyl)pyrimidin-4-yl)thiophene-3-carboxamide] | ≥ 7.00 | ≥ 7.00 | ≥ 7.00

Reference: patent publication US20240150340A1, “CDK Inhibitors And Their Use As Pharmaceuticals” (Prelude Therapeutics Incorporated, priority 2022, published 2024)
